Measurements as given in PubChem BioAssay AID248 (DTP/NCI, 2004).
“And” between values parts separate entries of the source, which are not always exact repeats. Equal entries are not always repeated. Toxic doses and inconclusive results are not listed. No stated cut-off is given here; in the data, active means T/C of 150% or more; inactive means T/C below 125%.

Tested on: L1210 leukemia ip in BDF1 mice, survival T/C
Test: NCI In Vivo Anticancer Drug Screen. Data for tumor model L1210 Leukemia (intraperitoneal) in B6D2F1 (BDF1) mice
Conditions: endpoint: mean survival time, higher = longer survival
Method in brief: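 Each compound was tested against a transplantable tumor grown in mice. The endpoint was survival, with treated animals benchmarked against vehicle controls as a simple ratio.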

[1] = dose: 100.0 mg/kg/injection, schedule: Q01DX009 (ip), vehicle: saline
[2] = dose: 100.0 mg/kg/injection, schedule: Q04DX002 (ip), vehicle: saline
[3] = dose: 100.0 mg/kg/injection, schedule: Q04DX003 (ip), vehicle: saline
[4] = dose: 200.0 mg/kg/injection, schedule: Q01DX009 (ip), vehicle: saline
[5] = dose: 200.0 mg/kg/injection, schedule: Q04DX002 (ip), vehicle: saline
[6] = dose: 200.0 mg/kg/injection, schedule: Q04DX003 (ip), vehicle: saline
[7] = dose: 400.0 mg/kg/injection, schedule: Q04DX002 (ip), vehicle: saline
[8] = dose: 100.0 mg/kg/injection, schedule: Q01DX009 (ip), vehicle: Klucel (hydroxypropylcellulose) (HPC)
[9] = dose: 200.0 mg/kg/injection, schedule: Q01DX009 (ip), vehicle: Klucel (hydroxypropylcellulose) (HPC)
[10] = dose: 400.0 mg/kg/injection, schedule: Q01DX009 (ip), vehicle: Klucel (hydroxypropylcellulose) (HPC)
[11] = dose: 100.0 mg/kg/injection, schedule: Q04DX002 (ip), vehicle: Klucel (hydroxypropylcellulose) (HPC)
[12] = dose: 200.0 mg/kg/injection, schedule: Q04DX002 (ip), vehicle: Klucel (hydroxypropylcellulose) (HPC)
[13] = dose: 400.0 mg/kg/injection, schedule: Q04DX002 (ip), vehicle: Klucel (hydroxypropylcellulose) (HPC)
[14] = dose: 100.0 mg/kg/injection, schedule: Q01DX009 (ip), vehicle: saline with Tween-80
[15] = dose: 200.0 mg/kg/injection, schedule: Q01DX009 (ip), vehicle: saline with Tween-80
[16] = dose: 400.0 mg/kg/injection, schedule: Q01DX009 (ip), vehicle: saline with Tween-80
[17] = dose: 100.0 mg/kg/injection, schedule: Q04DX003 (ip), vehicle: saline with Tween-80
[18] = dose: 200.0 mg/kg/injection, schedule: Q04DX003 (ip), vehicle: saline with Tween-80
[19] = dose: 400.0 mg/kg/injection, schedule: Q04DX003 (ip), vehicle: saline with Tween-80
[20] = dose: 100.0 mg/kg/injection, schedule: Q04DX003 (ip), vehicle: Klucel (hydroxypropylcellulose) (HPC)
[21] = dose: 200.0 mg/kg/injection, schedule: Q04DX003 (ip), vehicle: Klucel (hydroxypropylcellulose) (HPC)
[22] = dose: 400.0 mg/kg/injection, schedule: Q04DX003 (ip), vehicle: Klucel (hydroxypropylcellulose) (HPC)

Measured: T/C

COc1ccccc1NC(=O)Oc1ccc(Br)cc1Br
inactive: dose: 100.0 mg/kg/injection, schedule: Q01DX001 (ip), vehicle: saline 95 % of control | [1] 102 % of control and 106 % of control | [2] 105 % of control and 109 % of control | [3] 93 % of control | dose: 200.0 mg/kg/injection, schedule: Q01DX001 (ip), vehicle: saline 101 % of control | [4] 103 % of control and 110 % of control | [5] 105 % of control and 109 % of control | [6] 95 % of control | dose: 400.0 mg/kg/injection, schedule: Q01DX001 (ip), vehicle: saline 123 % of control | dose: 400.0 mg/kg/injection, schedule: Q01DX009 (ip), vehicle: saline 103 % of control and 109 % of control | [7] 107 % of control and 88 % of control | dose: 400.0 mg/kg/injection, schedule: Q04DX003 (ip), vehicle: saline 101 % of control

CCCCCCCCC1CCC2C3CCC4CC(C(=O)O)C(C(=O)O)CC4(C)C3CCC12C (stereo unspecified)
inactive: dose: 100.0 mg/kg/injection, schedule: Q01DX001 (ip), vehicle: saline with Tween-80 86 % of control | dose: 200.0 mg/kg/injection, schedule: Q01DX001 (ip), vehicle: saline with Tween-80 87 % of control

N=C(Oc1c(Cl)c(Cl)c(Cl)c(Cl)c1Cl)Oc1c(Cl)c(Cl)c(Cl)c(Cl)c1Cl
inactive: [8] 100 % of control | [9] 111 % of control | [10] 102 % of control

O=C(O)COc1ccc(F)cn1
inactive: [11] 101 % of control | [12] 93 % of control | [13] 114 % of control

CCCCCCCCC(=O)N(CC)CC
inactive: [2] 111 % of control | [5] 103 % of control | [7] 96 % of control

C1CC2CC3OC3CC12 (stereo unspecified)
inactive: [11] 95 % of control | [12] 92 % of control | [13] 92 % of control

c1ccc(C2c3cc4ccccc4cc3Oc3ccc4ccccc4c32)cc1 (stereo unspecified)
inactive: dose: 75.0 mg/kg/injection, schedule: Q04DX003 (ip), vehicle: other 94 % of control | dose: 300.0 mg/kg/injection, schedule: Q04DX003 (ip), vehicle: other 103 % of control

CC(C)NNC(=O)C(C)N (stereo unspecified)
inactive: dose: 12.5 mg/kg/injection, schedule: Q01DX009 (ip), vehicle: saline 87 % of control | dose: 25.0 mg/kg/injection, schedule: Q01DX009 (ip), vehicle: saline 90 % of control | dose: 25.0 mg/kg/injection, schedule: Q04DX003 (ip), vehicle: saline 89 % of control | dose: 50.0 mg/kg/injection, schedule: Q01DX009 (ip), vehicle: saline 92 % of control | dose: 50.0 mg/kg/injection, schedule: Q04DX003 (ip), vehicle: saline 103 % of control | [1] 92 % of control | [3] 89 % of control | [4] 93 % of control | [6] 86 % of control

CC(=O)OC1CCC2(C)C(CCC3C2C(=O)C(OC(C)=O)C2(C)C3CC3OC4(CCC(C)CO4)C(C)C32)C1 (stereo unspecified)
inactive: [14] 90 % of control | [15] 95 % of control | [16] 101 % of control

CSc1ccc(NC(=O)Nc2cccc(Cl)c2C)cc1
inactive: dose: 50.0 mg/kg/injection, schedule: Q04DX003 (ip), vehicle: saline with Tween-80 94 % of control | [14] 96 % of control and 101 % of control | dose: 100.0 mg/kg/injection, schedule: Q04DX002 (ip), vehicle: saline with Tween-80 93 % of control and 104 % of control | [17] 92 % of control | [15] 100 % of control and 104 % of control | dose: 200.0 mg/kg/injection, schedule: Q04DX002 (ip), vehicle: saline with Tween-80 93 % of control and 97 % of control | [18] 87 % of control | [16] 104 % of control and 106 % of control | dose: 400.0 mg/kg/injection, schedule: Q04DX002 (ip), vehicle: saline with Tween-80 107 % of control and 88 % of control | [19] 88 % of control

COc1cc2c3c(c1)/C(=N\N)CCN3CCC2
inactive: dose: 12.5 mg/kg/injection, schedule: Q01DX009 (ip), vehicle: saline with Tween-80 90 % of control | dose: 25.0 mg/kg/injection, schedule: Q01DX009 (ip), vehicle: saline with Tween-80 94 % of control | dose: 50.0 mg/kg/injection, schedule: Q01DX009 (ip), vehicle: saline with Tween-80 92 % of control | [17] 92 % of control | [15] 99 % of control | [18] 103 % of control

CCc1ccccc1NC(=O)Nc1ccc(OC)cc1
inactive: dose: 25.0 mg/kg/injection, schedule: Q01DX009 (ip), vehicle: Klucel (hydroxypropylcellulose) (HPC) 90 % of control | dose: 50.0 mg/kg/injection, schedule: Q01DX009 (ip), vehicle: Klucel (hydroxypropylcellulose) (HPC) 95 % of control | [8] 93 % of control | [20] 94 % of control | [9] 86 % of control | [21] 91 % of control | [22] 96 % of control

COc1ccc(C=O)c(O)c1
inactive: [8] 92 % of control | [20] 97 % of control | [9] 103 % of control | [21] 101 % of control | [10] 95 % of control | [22] 105 % of control

Brc1cnc(OCc2ccccc2)nc1OCc1ccccc1
inactive: [8] 91 % of control | [14] 103 % of control | [20] 96 % of control | [17] 103 % of control | [9] 102 % of control | [15] 102 % of control | [21] 100 % of control | [18] 97 % of control | [10] 104 % of control | [16] 101 % of control | [22] 93 % of control | [19] 92 % of control
